The text below walks through data of ChEMBL document CHEMBL3046031, “Comparison of Acaricidal, Insecticidal, and Nerve Activities of Halfenprox (MTI-732) and Related Compounds” (1996).

Active and inactive are the calls of the source. The calls are words filed in the database; no cut-off is given here.

Format in all cases: functional
The subject of test [1] is Tetranychus urticae. In words: Acaricidal activity against Tetranychus urticae (two-spotted spider mite) infested kidney bean leaf disk assessed as mortality measured after 48 hr.
Test [2] has as its system Spodoptera litura. Description: Insecticidal activity against third-instar larvae of Spodoptera litura infested compound-treated cabbage leaf assessed as mortality after 48 hr in presence of piperonyl butoxide.
In test [3] the test system is Nerve cord. In words: Induction of repetitive firing in excised nerve cord of Periplaneta americana (American cockroach) measured up to 32 min.
In test [4] the test system is Tetranychus urticae. Description: Ratio of etofenprox LC50 to compound LC50 for Tetranychus urticae (two-spotted spider mite) infested kidney bean leaf disk.
Test [5] relates to Procambarus clarkii. Description: Induction of depolarization in Procambarus clarkii (crayfish) giant axons assessed as transient inward sodium currents at -100 to -20 mV holding potential at 2 x 10 '-5 M.
The subject of test [6] is Periplaneta americana. Description: Insecticidal activity against Periplaneta americana (American cockroach) assessed as paralysis/mortality compound injected into abdomen after 24 hr.
Test [7] relates to Spodoptera litura. Description: Insecticidal activity against third-instar larvae of Spodoptera litura infested compound-treated cabbage leaf assessed as mortality after 48 hr.

As for `CC(C)(COCc1cccc(Oc2ccccc2)c1)c1ccc(OC(F)(F)Br)cc1` [halfenprox], the “log(1/LC50)” value was determined as 5.77 in test [1] and 4.83 in test [7]. In addition, the “log(1/MLD)” value in test [2] worked out at 9.77; in test [6], 9.67. The “log(1/MEC)” value in test [3] is reported as 6.57. The RatioLC50 in test [4] stood at 200. The result in test [5] was Active.
Regarding `CCOc1ccc(C(C)(C)COCc2cccc(Oc3ccccc3)c2)cc1` [ETOFENPROX], the “log(1/LC50)” value in test [1] is 3.48; in test [7], 4.68. For the same compound, the “log(1/MLD)” value in test [2] turned out to be 9.79; in test [6], 9.49. The “log(1/MEC)” value in test [3] stood at 8. Moreover, the outcome in test [5] was Active.
In the case of `CC(C)(COCc1cccc(Oc2ccccc2)c1)c1ccc(OC(F)(F)Cl)cc1`, the “log(1/LC50)” value in test [1] was 5.34; in test [7], 4.96. The figures for the “log(1/MLD)” value in test [2] and in test [6] were 9.75 and 9.55, respectively. The “log(1/MEC)” value in test [3] was found to be 6.14. For the same compound, in test [5], the result was Active.
As to `CC(C)(COCc1cccc(Oc2ccccc2)c1)c1ccc(OC(F)F)cc1`, the “log(1/LC50)” value in test [1] is 3.75; in test [7], 4.7. Moreover, the “log(1/MLD)” value turned out to be 9.52 in test [2] and 9.03 in test [6]. Also, the “log(1/MEC)” value in test [3] is 7.73. Besides, in test [5], the outcome was Active.
Turning to `CC(C)(COCc1cccc(Oc2ccccc2)c1)c1ccc(OC(F)(F)F)cc1`, the entries for the “log(1/LC50)” value in test [1] and in test [7] were 5.14 and 5.36, respectively. In addition, the figures for the “log(1/MLD)” value in test [2] and in test [6] were 9.75 and 9.64, respectively. Moreover, in test [3], the “log(1/MEC)” value is reported as 7.45. Further, the outcome in test [5] was Active.
